Experimental data from patent US12516070B2, “Fused ring derivatives and use thereof in pharmacy” (priority 2020, dated 2026).
Where two headings read alike, the source gives them in different places.

Key:
[1] = test system: influenza A virus A/PR/8/34 (H1N1); experiment: Influenza virus cytopathic effect (CPE) assay, A/PR/8/34 (H1N1); assay type: cell-based; settings: MDCK cells, 5 days, CCK8, read-out: EC50, inhibitory activity against influenza A virus A/PR/8/34 (H1N1)
[2] = test system: influenza A virus strain A/PR8/34; experiment: Drug efficacy assay in mice, treatment model of influenza A; assay type: in vivo, mice (BALB/c); settings: 30 mpk BID intragastric, day 2 to day 8
[3] = assay type: in vivo, Beagle dogs; settings: Dog, PO, 1 mpk of 8B; concentration of 7B detected
Description: (§1) Experimental objectives: To evaluate the druggability of the compounds by measuring pharmacokinetic properties in different animal species.
(§2) Experimental materials: Sprague-Dawley strain rats, Beagle dogs, cynomolgus monkeys.
(§3) The animal pharmacokinetic properties of the compound after intravenous injection and oral administration were tested by standard protocols, in which the candidate compound was prepared as a clear solution (intravenous injection) or as a homogeneous suspension (oral administration), and administered as a single dose to the animals. The vehicles for intravenous injection and oral administration are dimethyl sulfoxide and polyethylene glycol (15)-hydroxystearate aqueous solution in certain proportions. Whole blood samples were collected within 24 hours, centrifuged at 3200 g for 10 minutes, and the supernatant was separated to obtain plasma samples. Quantitative analysis of plasma concentrations was performed by LC-MS/MS analysis method, and pharmacokinetic parameters such as peak concentration, peak time, clearance rate, half-life, and area under the drug-time curve were calculated.

[4] = assay type: in vivo; settings: Mouse, PO, 10 mpk of 8B; concentration of 7B detected
Description: as §1, §2, §3

[5] = assay type: in vivo, cynomolgus monkeys; design: Tmax: unit not given here; settings: Monkey, PO, 1 mpk of 8B; concentration of 7B detected
Description: as §1, §2, §3

`CN1C(=O)c2c(O)c(=O)ccn2N2C1CCOc1cc(F)c(F)cc1[C@H]2c1ccccc1` (stereo partly shown) [Compound 1A] gave an EC50 ([1]; Influenza A virus, 120 h) of 22 nM.

Compound `O=C1c2c(O)c(=O)ccn2N2C(CCOc3cc(F)c(F)cc3[C@H]2c2ccccc2)N1C1CCC1` (stereo partly shown) [Compound 2A] has an EC50 ([1]; Influenza A virus, 120 h) of 13 nM.

`O=C1c2c(O)c(=O)ccn2N2[C@H](c3ccccc3)c3ccccc3OCC[C@H]2N1C1CCC1` [Compound 3A] gave an EC50 [1] of 37 nM.

Work on `CC(C)N1C(=O)c2c(O)c(=O)ccn2N2C1CCOc1ccccc1[C@H]2c1ccccc1` (stereo partly shown) [Compound 4A] yielded an EC50 ([1]; Influenza A virus, 120 h) of 74 nM.

With `COC(=O)OCOc1c2n(ccc1=O)N1[C@H](c3ccccc3)c3cc(F)c(F)cc3OCC[C@H]1N(C)C2=O` [Compound 8B] the “Change in body weight (Percentage of starting body weight)” value ([2]; Day 3) was −6.6 ± 1.1 Percentage of starting body weight, the Survival rate ([2]; Day 3) was 100% and the “Change in body weight (Percentage of starting body weight)” value ([2]; Day 4) was −9.3 ± 0.8 Percentage of starting body weight. For the same compound, the Survival rate ([2]; Day 4) was 100%, the “Change in body weight (Percentage of starting body weight)” value ([2]; Day 5) was −8.9 ± 2.2 Percentage of starting body weight and the Survival rate ([2]; Day 5) was 100%. For the same compound, the “Change in body weight (Percentage of starting body weight)” value ([2]; Day 6) was −9.4 ± 1.9 Percentage of starting body weight, the Survival rate ([2]; Day 6) was 100% and the “Change in body weight (Percentage of starting body weight)” value ([2]; Day 7) was −7.7 ± 1.4 Percentage of starting body weight. For the same compound, the Survival rate ([2]; Day 7) was 100%, the “Change in body weight (Percentage of starting body weight)” value ([2]; Day 8) was −0.9 ± 0.8 Percentage of starting body weight and the Survival rate ([2]; Day 8) was 100%. The “Change in body weight (Percentage of starting body weight)” value ([2]; Day 9) was −0.5 ± 1.1 Percentage of starting body weight, the Survival rate ([2]; Day 9) was 100% and the “Change in body weight (Percentage of starting body weight)” value ([2]; Day 10) was 0.5 ± 0.6 Percentage of starting body weight. The Survival rate ([2]; Day 10) was 100%, the “Change in body weight (Percentage of starting body weight)” value ([2]; Day 11) was 2.5 ± 0.6 Percentage of starting body weight and the Survival rate ([2]; Day 11) was 100%. For the same compound, the “Change in body weight (Percentage of starting body weight)” value ([2]; Day 12) was 2.9 ± 1.0 Percentage of starting body weight, the Survival rate ([2]; Day 12) was 100% and the “Change in body weight (Percentage of starting body weight)” value ([2]; Day 13) was 2.4 ± 1.3 Percentage of starting body weight. For the same compound, the Survival rate ([2]; Day 13) was 100%, the “Change in body weight (Percentage of starting body weight)” value ([2]; Day 14) was 2.7 ± 1.4 Percentage of starting body weight and the Survival rate ([2]; Day 14) was 100%. For the same compound, the AUC [3] was 0.724 µM·h, the Cmax [3] was 171 nM and the T1/2 [3] was 4.4 h. It also gave a Tmax [3] of 0.75 h, an AUC [4] of 0.93 µM·h and a Cmax [4] of 309 nM. It also gave a T1/2 [4] of 1.3 h, a Tmax [4] of 1.2 h and an AUC [5] of 0.785 µM·h. It also gave a Cmax [5] of 163 nM, a T1/2 [5] of 3.6 h and a Tmax [5] of 3.

Compound `CN1C(=O)c2c(O)c(=O)ccn2N2C1CCOc1cc(F)c(F)cc1[C@H]2c1ccc(F)cc1` (stereo partly shown) [Compound 9A] has an EC50 ([1]; Influenza A virus, 120 h) of 34 nM.

`CN1C(=O)c2c(O)c(=O)ccn2N2[C@H](c3ccccc3Br)c3cc(F)c(F)cc3OCC[C@@H]12` [Compound 18A] showed an EC50 ([1]; Influenza A virus, 120 h) of 11 nM.

For `CN1C(=O)c2c(O)c(=O)ccn2N2[C@H](c3ccccc3)c3ccc(F)c(F)c3OCC[C@@H]12` [Compound 20A], the EC50 ([1]; Influenza A virus, 120 h) was 50 nM.
